System: Rats operated on lnfraorbital nerve
Assay: Rats operated on infraorbital nerve (ligature): response/nociceptive threshold measured as aversive reactions
Type: in vivo
From the text: Figures 1 and 2: Refering to example 7 they show the high efficacy of Cizolirtine in a model for the central neuropathic pain, the ligature of the infraorbital nerve.
Rats operated on lnfraorbital nerve
Rats were operated placing a ligature around the infraorbital nerve on one side. Following this operation the response threshold in (g) is reduced considerably if comparing the ipsilateral and contralateral side to the response pre ligature (Fig. 2) measured as aversive reactions. […] Saline produced no modification of the nociceptive threshold.

CN(C)CCOC(c1ccccc1)c1ccnn1C (racemic) [Cizolirtine, (±)-5-{α-[2-(dimethylamino)ethoxy]benzyl}-1-methyl-1H-pirazole]
nociceptive threshold (%) (i.p., 80 mg/kg, ipsilateral side, rats with ligature around the infraorbital nerve, Fig. 1): strong inducement of the nociceptive threshold
efficacy in a model for the central neuropathic pain, the ligature of the infraorbital nerve (legend of Figures 1 and 2, referring to example 7): high efficacy

Reference: patent publication EP1642577A1, “Derivatives of aryl (or heteroaryl) azolylcarbinols for the treatment of central neuropathic pain” (Laboratorios Dr. Esteve S.A., priority 2004, dated 2006)
